Test results as given in PubChem BioAssay AID256 (DTP/NCI, 2004).
Several values for one entry are separate records, joined by “and”; a condition that tells them apart may be missing. Equal entries are not always repeated. Inconclusive results and toxic doses are left out. Rule for the calls: active = survival T/C of 150% or more; inactive = T/C below 125% in these data.

Tested on: CD2F1 mice, L1210 leukemia ip, survival T/C
Experiment: NCI In Vivo Anticancer Drug Screen. Data for tumor model L1210 Leukemia (intraperitoneal) in CD2F1 (CDF1) mice
Conditions: higher = longer survival
In short: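 Compound-dosed mice with transplantable tumor versus matched vehicle controls; endpoint ratio T/C reported.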

[1] = endpoint: mean survival time, dose: 100.0 mg/kg/injection, schedule: Q04DX003 (ip), vehicle: saline with Tween-80
[2] = endpoint: mean survival time, dose: 200.0 mg/kg/injection, schedule: Q04DX003 (ip), vehicle: saline with Tween-80
[3] = endpoint: mean survival time, dose: 400.0 mg/kg/injection, schedule: Q04DX003 (ip), vehicle: saline with Tween-80
[4] = endpoint: mean survival time, dose: 100.0 mg/kg/injection, schedule: Q04DX002 (ip), vehicle: saline with Tween-80
[5] = endpoint: mean survival time, dose: 200.0 mg/kg/injection, schedule: Q04DX002 (ip), vehicle: saline with Tween-80
[6] = endpoint: mean survival time, dose: 400.0 mg/kg/injection, schedule: Q04DX002 (ip), vehicle: saline with Tween-80
[7] = endpoint: mean survival time, dose: 100.0 mg/kg/injection, schedule: Q01DX009 (ip), vehicle: saline
[8] = endpoint: mean survival time, dose: 200.0 mg/kg/injection, schedule: Q01DX009 (ip), vehicle: saline
[9] = endpoint: mean survival time, dose: 400.0 mg/kg/injection, schedule: Q01DX009 (ip), vehicle: saline
[10] = endpoint: mean survival time, dose: 100.0 mg/kg/injection, schedule: Q01DX009 (ip), vehicle: saline with Tween-80
[11] = endpoint: mean survival time, dose: 200.0 mg/kg/injection, schedule: Q01DX009 (ip), vehicle: saline with Tween-80
[12] = endpoint: mean survival time, dose: 100.0 mg/kg/injection, schedule: Q04DX003 (ip), vehicle: saline
[13] = endpoint: mean survival time, dose: 25.0 mg/kg/injection, schedule: Q01DX009 (ip), vehicle: saline with Tween-80

Measured: T/C

O=C1CN(c2ccccc2)C(=O)C1C(=O)Nc1ccc(Cl)c(Cl)c1 (configuration not stated)
inactive: endpoint: median survival time, dose: 25.9 mg/kg/injection, schedule: Q01DX005 (ip), vehicle: saline with Tween-80 104 % of control | endpoint: median survival time, dose: 30.0 mg/kg/injection, schedule: Q01DX005 (ip), vehicle: saline with Tween-80 97 % of control | endpoint: median survival time, dose: 43.0 mg/kg/injection, schedule: Q01DX005 (ip), vehicle: saline with Tween-80 101 % of control and 104 % of control | endpoint: median survival time, dose: 43.2 mg/kg/injection, schedule: Q01DX005 (ip), vehicle: saline with Tween-80 98 % of control and 104 % of control | endpoint: median survival time, dose: 60.0 mg/kg/injection, schedule: Q01DX005 (ip), vehicle: saline with Tween-80 102 % of control

CC1(O)CC2C=CC1CC2 (configuration not stated)
inactive: [1] 101 % of control | [2] 104 % of control | [3] 95 % of control

CCN(CC)CC(C)Nc1c2ccc(Cl)cc2nc2ccc(OC)cc12 (configuration not stated)
inactive: [4] 94 % of control | [5] 91 % of control | [6] 97 % of control

CC1(C)N=C(N)N=C(N)N1c1cccc(CCC(=O)Nc2ccc(S(=O)(=O)F)cc2)c1
inactive: endpoint: mean survival time, dose: 50.0 mg/kg/injection, schedule: Q01DX009 (ip), vehicle: saline 100 % of control | [7] 102 % of control | [8] 105 % of control | endpoint: mean survival time, dose: 300.0 mg/kg/injection, schedule: Q01DX009 (ip), vehicle: saline 105 % of control | [9] 108 % of control

O=C1CCC(=O)O1
inactive: [10] 95 % of control | [11] 102 % of control

CC(=O)OC1CCCCCCCCCCC12OCCO2 (configuration not stated)
inactive: endpoint: mean survival time, dose: 100.0 mg/kg/injection, schedule: Q04DX002 (ip), vehicle: other 104 % of control | endpoint: mean survival time, dose: 400.0 mg/kg/injection, schedule: Q04DX002 (ip), vehicle: other 115 % of control

O=C(/C(=N\O)c1ccc(Cl)cc1)c1ccc(Cl)cc1
inactive: [1] 95 % of control | [2] 87 % of control

O=S(=O)(Cc1ccccc1)CC(Br)CBr (configuration not stated)
inactive: endpoint: mean survival time, dose: 100.0 mg/kg/injection, schedule: Q01DX001 (ip), vehicle: Klucel (hydroxypropylcellulose) (HPC) 91 % of control | endpoint: mean survival time, dose: 200.0 mg/kg/injection, schedule: Q01DX001 (ip), vehicle: Klucel (hydroxypropylcellulose) (HPC) 103 % of control | endpoint: mean survival time, dose: 400.0 mg/kg/injection, schedule: Q01DX001 (ip), vehicle: Klucel (hydroxypropylcellulose) (HPC) 106 % of control

CNc1nc(N)nc(CN2CCOCC2c2ccccn2)n1 (configuration not stated)
inactive: endpoint: mean survival time, dose: 100.0 mg/kg/injection, schedule: Q04DX002 (ip), vehicle: saline 88 % of control | endpoint: mean survival time, dose: 200.0 mg/kg/injection, schedule: Q04DX002 (ip), vehicle: saline 114 % of control | endpoint: mean survival time, dose: 400.0 mg/kg/injection, schedule: Q04DX002 (ip), vehicle: saline 96 % of control

COc1cc2ccc3c(c2cc1OC)CCc1cn[nH]c1-3
inactive: [4] 103 % of control | [5] 107 % of control | [6] 103 % of control

CCC(=O)C(CC)(c1ccc(OC(C)=O)cc1)c1ccc(OC(C)=O)cc1
inactive: [12] 94 % of control | endpoint: mean survival time, dose: 200.0 mg/kg/injection, schedule: Q04DX003 (ip), vehicle: saline 96 % of control | endpoint: mean survival time, dose: 400.0 mg/kg/injection, schedule: Q04DX003 (ip), vehicle: saline 96 % of control

O=C(SCc1ccccc1)c1cccnc1
inactive: endpoint: mean survival time, dose: 6.25 mg/kg/injection, schedule: Q01DX009 (ip), vehicle: saline 98 % of control | endpoint: mean survival time, dose: 12.5 mg/kg/injection, schedule: Q01DX009 (ip), vehicle: saline 98 % of control | [13] 94 % of control | endpoint: mean survival time, dose: 25.0 mg/kg/injection, schedule: Q01DX009 (ip), vehicle: saline 98 % of control | endpoint: mean survival time, dose: 50.0 mg/kg/injection, schedule: Q01DX009 (ip), vehicle: saline with Tween-80 96 % of control | [10] 92 % of control

CN(C)C1CC[N-]CC1.CN(C)C1CC[N-]CC1.[Cl][Pt+2][Cl]
inactive: endpoint: mean survival time, dose: 25.0 mg/kg/injection, schedule: Q04DX003 (ip), vehicle: saline 103 % of control | endpoint: mean survival time, dose: 50.0 mg/kg/injection, schedule: Q04DX003 (ip), vehicle: saline 109 % of control | [12] 114 % of control

CCC(=O)c1ccccc1N
inactive: [1] 90 % of control | [2] 105 % of control | [3] 97 % of control

Cc1cc2oc(=O)cc(O)c2c(=O)o1
inactive: [10] 96 % of control | [1] 94 % of control | [11] 96 % of control | [2] 97 % of control | [3] 98 % of control

CC(=O)OC1COC(n2cnc(C#N)c2C#N)C(OC(C)=O)C1OC(C)=O (configuration not stated)
inactive: endpoint: mean survival time, dose: 12.5 mg/kg/injection, schedule: Q01DX005 (ip), vehicle: distilled water + Tween-80 101 % of control and 98 % of control | endpoint: mean survival time, dose: 25.0 mg/kg/injection, schedule: Q01DX005 (ip), vehicle: distilled water + Tween-80 95 % of control and 103 % of control | endpoint: mean survival time, dose: 50.0 mg/kg/injection, schedule: Q01DX005 (ip), vehicle: distilled water + Tween-80 93 % of control and 101 % of control | endpoint: mean survival time, dose: 100.0 mg/kg/injection, schedule: Q01DX005 (ip), vehicle: distilled water + Tween-80 97 % of control | endpoint: mean survival time, dose: 200.0 mg/kg/injection, schedule: Q01DX005 (ip), vehicle: distilled water + Tween-80 93 % of control and 104 % of control

CCCCCCCCCCCCCCCC1=NC(C)(C)CN1C(C)C
inactive: endpoint: mean survival time, dose: 1.25 mg/kg/injection, schedule: Q01DX009 (ip), vehicle: saline with Tween-80 95 % of control | endpoint: mean survival time, dose: 2.5 mg/kg/injection, schedule: Q01DX009 (ip), vehicle: saline with Tween-80 102 % of control | endpoint: mean survival time, dose: 5.0 mg/kg/injection, schedule: Q01DX009 (ip), vehicle: saline with Tween-80 98 % of control

CCOC(=O)c1ccc(NC(=O)Nc2nncs2)cc1
inactive: endpoint: mean survival time, dose: 6.25 mg/kg/injection, schedule: Q01DX009 (ip), vehicle: distilled water + Tween-80 101 % of control | endpoint: mean survival time, dose: 12.5 mg/kg/injection, schedule: Q01DX009 (ip), vehicle: distilled water + Tween-80 97 % of control and 103 % of control | endpoint: mean survival time, dose: 25.0 mg/kg/injection, schedule: Q01DX009 (ip), vehicle: distilled water + Tween-80 104 % of control and 107 % of control | endpoint: mean survival time, dose: 50.0 mg/kg/injection, schedule: Q01DX009 (ip), vehicle: distilled water + Tween-80 113 % of control and 115 % of control | endpoint: mean survival time, dose: 100.0 mg/kg/injection, schedule: Q01DX009 (ip), vehicle: distilled water + Tween-80 104 % of control and 112 % of control | endpoint: mean survival time, dose: 200.0 mg/kg/injection, schedule: Q01DX009 (ip), vehicle: distilled water + Tween-80 115 % of control

O=C(O)c1ccccc1F
inactive: endpoint: mean survival time, dose: 100.0 mg/kg/injection, schedule: Q01DX001 (ip), vehicle: saline with Tween-80 96 % of control | endpoint: mean survival time, dose: 200.0 mg/kg/injection, schedule: Q01DX001 (ip), vehicle: saline with Tween-80 107 % of control

C/C([O-])=C/[S+](C)(=O)N(C)C (configuration not stated)
inactive: endpoint: mean survival time, dose: 25.0 mg/kg/injection, schedule: Q01DX001 (ip), vehicle: saline 103 % of control | endpoint: mean survival time, dose: 50.0 mg/kg/injection, schedule: Q01DX001 (ip), vehicle: saline 109 % of control | endpoint: mean survival time, dose: 100.0 mg/kg/injection, schedule: Q01DX001 (ip), vehicle: saline 96 % of control

CCCCCCCCSC1=C(Cl)C(=O)C(OC)=C(OC)C1=O
inactive: endpoint: mean survival time, dose: 1.5 mg/kg/injection, schedule: Q01DX009 (ip), vehicle: saline with Tween-80 95 % of control | endpoint: mean survival time, dose: 3.0 mg/kg/injection, schedule: Q01DX009 (ip), vehicle: saline with Tween-80 98 % of control | endpoint: mean survival time, dose: 3.13 mg/kg/injection, schedule: Q01DX009 (ip), vehicle: saline with Tween-80 94 % of control | endpoint: mean survival time, dose: 6.25 mg/kg/injection, schedule: Q01DX009 (ip), vehicle: saline with Tween-80 89 % of control and 98 % of control | endpoint: mean survival time, dose: 12.5 mg/kg/injection, schedule: Q01DX009 (ip), vehicle: saline with Tween-80 96 % of control and 104 % of control | [13] 96 % of control and 102 % of control

O=C(O)C(=Cc1ccnc2ccccc12)C(=O)O
inactive: [7] 100 % of control | [1] 111 % of control | [8] 94 % of control | [2] 100 % of control | [9] 111 % of control | [3] 98 % of control
